Laboratory results as given in patent US11160871B2, “SSTR-targeted conjugates and particles and formulations thereof” (TARVEDA THERAPEUTICS, INC., priority 2015, dated 2021).
Read-outs that look alike come from different tables or passages of the source. Positions of bridges follow the written chain, without caps; N, C: chain ends. Non-standard residues stand in square brackets, D forms with d. Residues, ends and D or L forms follow the SMILES beside them. *: point of attachment. NH(CH2)2SS(DM1) = COc1cc2cc(c1Cl)N(C)C(=O)C[C@H](OC(=O)[C@H](C)N(C)C(=O)CCSSCCN*)[C@]1(C)O[C@H]1[C@H](C)[C@@H]1C[C@@](O)(NC(=O)O1)[C@H](OC)/C=C/C=C(\C)C2; X1 = COc1cc2cc(c1Cl)N(C)C(=O)C[C@H](OC(=O)[C@H](C)N(C)C(=O)CCS*)[C@]1(C)O[C@H]1[C@H](C)[C@@H]1C[C@@](O)(NC(=O)O1)[C@H](OC)/C=C/C=C(\C)C2; Thr(ol) = C[C@@H](O)[C@H](N)CO

System: NCI-H524 human small cell lung cancer cells
Experiment: cells
Assay type: cell-based
Description: Conjugates of the present invention were assessed in an in vitro assay evaluating inhibition of cell proliferation. NCI-H524 (ATCC) human small cell lung cancer cells were plated in 96 well, V-bottomed plates (Costar) at a concentration of 5,000 cells/well. 24 hours later, cells were treated with either conjugate for 2 hours and further incubated 70 hours, or for octreotide competition experiments, treated with 100 μM octreotide for 30 min, and then treated with conjugate for 2 hours, and further incubated for 70 hours. Conjugate starting dose was 20 μM and three fold serial dilutions were done for a total of ten points. After 2 hours of treatment, cells were spun down, the drug containing media was removed, and fresh complete medium was added and used to resuspend the cells, which were spun again. After removal of the wash media, the cells were resuspended in complete medium, and then transferred into white walled, flat bottomed 96 well plates. […] Proliferation was measured using CellTiter Glo reagent using the standard protocol (Promega) and a Glomax multi+ detection system (Promega). Percent proliferation inhibition was calculated using the following formula: % inhibition=(control−treatment)/control*100. Control is defined as vehicle alone. IC50 curves were generated using the nonlinear regression analysis (four parameter) with GraphPad Prism 6.

[1] = 2 hours treatment, 70 hours further incubation, read-out: H524 IC50
[2] = read-out: H524 IC50+ 100 uM octreotide, 100 μM octreotide for 30 min before conjugate

## COc1cc2cc(c1Cl)N(C)C(=O)C[C@H](OC(=O)[C@H](C)N(C)C(=O)CCSSC(C)CCN[C@H](Cc1ccccc1)C(=O)N[C@H]1CSSC[C@@H](C(=O)N[C@H](CO)[C@@H](C)O)NC(=O)[C@H]([C@@H](C)O)NC(=O)[C@H](CCCCN)NC(=O)[C@@H](Cc3c[nH]c4ccccc34)NC(=O)[C@H](Cc3ccccc3)NC1=O)[C@]1(C)O[C@H]1[C@H](C)[C@@H]1C[C@@](O)(NC(=O)O1)[C@H](OC)/C=C/C=C(\C)C2 (single isomer, unassigned) [Conjugate 82]
[1]
  IC50: 148 nM
[2]
  IC50: 867 nM

## COc1cc2cc(c1Cl)N(C)C(=O)C[C@H](OC(=O)[C@H](C)N(C)C(=O)CCSSCCC(=O)NCCOCCOCCOCCOCCOCCOCCOCCOCCC(=O)N[C@H](Cc1ccccc1)C(=O)N[C@H]1CSSC[C@@H](C(=O)N[C@H](CO)[C@@H](C)O)NC(=O)[C@H]([C@@H](C)O)NC(=O)[C@H](CCCCN)NC(=O)[C@@H](Cc3c[nH]c4ccccc34)NC(=O)[C@H](Cc3ccccc3)NC1=O)[C@]1(C)O[C@H]1[C@H](C)[C@@H]1C[C@@](O)(NC(=O)O1)[C@H](OC)/C=C/C=C(\C)C2 [Conjugate 6]
[1]
  IC50: 234 nM

## COc1cc2cc(c1Cl)N(C)C(=O)C[C@H](OC(=O)[C@H](C)N(C)C(=O)CCSSCCC(=O)NCCOCCOCCOCCNC(=O)[C@@H](NC(=O)[C@@H]1CSSC[C@H](NC(=O)[C@H](N)Cc3ccccc3)C(=O)N[C@@H](Cc3ccc(O)cc3)C(=O)N[C@H](Cc3c[nH]c4ccccc34)C(=O)N[C@@H](CCCCN)C(=O)N[C@@H]([C@@H](C)O)C(=O)N1)[C@@H](C)O)[C@]1(C)O[C@H]1[C@H](C)[C@@H]1C[C@@](O)(NC(=O)O1)[C@H](OC)/C=C/C=C(\C)C2 [Conjugate 47]
[1]
  IC50: 2130 nM
[2]
  IC50: 1270 nM

## COc1cc2cc(c1Cl)N(C)C(=O)C[C@H](OC(=O)[C@H](C)N(C)C(=O)CCSSC[C@H](N)C(=O)N[C@@H](CCCCN)C(=O)N[C@@H](CCCCN)C(=O)N[C@@H](CCCCN)C(=O)N[C@@H](CCCCN)C(=O)N[C@H](Cc1ccccc1)C(=O)N[C@H]1CSSC[C@@H](C(=O)N[C@H](CO)[C@@H](C)O)NC(=O)[C@H]([C@@H](C)O)NC(=O)[C@H](CCCCN)NC(=O)[C@@H](Cc3c[nH]c4ccccc34)NC(=O)[C@H](Cc3ccccc3)NC1=O)[C@]1(C)O[C@H]1[C@H](C)[C@@H]1C[C@@](O)(NC(=O)O1)[C@H](OC)/C=C/C=C(\C)C2 [Conjugate 7] (H-C(X1)KKKK[dF]CF[dW]KTC[Thr(ol)]; disulfide 7-12)
[1]
  IC50: 955 nM

## COc1cc2cc(c1Cl)N(C)C(=O)C[C@H](OC(=O)C(C)N(C)C(=O)CCSSCC(=O)NCCNC(=O)CC[C@H]1C(=O)N[C@@H](Cc3ccc(O)cc3)C(=O)N[C@H](Cc3c[nH]c4ccccc34)C(=O)N[C@@H](CCCCN)C(=O)N[C@@H]([C@@H](C)O)C(=O)N[C@@H](Cc3ccccc3)C(=O)N1C)[C@]1(C)O[C@H]1[C@H](C)[C@@H]1C[C@@](O)(NC(=O)O1)[C@H](OC)/C=C/C=C(\C)C2 (stereo partly shown) [Conjugate 30]
[1]
  IC50: 470 nM
[2]
  IC50: 2020 nM

## COc1cc2cc(c1Cl)N(C)C(=O)C[C@H](OC(=O)[C@H](C)N(C)C(=O)CCSSCCC(=O)N[C@H](Cc1ccccc1)C(=O)N[C@H]1CSSC[C@@H](C(=O)N[C@H](CO)[C@@H](C)O)NC(=O)[C@H]([C@@H](C)O)NC(=O)[C@H](CCCCN)NC(=O)[C@@H](Cc3c[nH]c4ccccc34)NC(=O)[C@H](Cc3ccccc3)NC1=O)[C@]1(C)O[C@H]1[C@H](C)[C@@H]1C[C@@](O)(NC(=O)O1)[C@H](OC)/C=C/C=C(\C)C2 [Conjugate 4]
[1]
  IC50: 367 nM
[2]
  IC50: 853 nM

## COc1cc2cc(c1Cl)N(C)C(=O)C[C@H](OC(=O)[C@H](C)N(C)C(=O)CCSC1CC(=O)N(CCCNC(=O)CC[C@H](NC(=O)[C@@H]3CSSC[C@H](NC(=O)[C@H](N)Cc4ccccc4)C(=O)N[C@@H](Cc4ccc(O)cc4)C(=O)N[C@H](Cc4c[nH]c5ccccc45)C(=O)N[C@@H](CCCCN)C(=O)N[C@@H]([C@@H](C)O)C(=O)N3)C(=O)NCCCN3C(=O)CC(SCCC(=O)N(C)[C@@H](C)C(=O)O[C@H]4CC(=O)N(C)c5cc(cc(OC)c5Cl)C/C(C)=C/C=C/[C@@H](OC)[C@@]5(O)C[C@H](OC(=O)N5)[C@@H](C)[C@@H]5O[C@@]45C)C3=O)C1=O)[C@]1(C)O[C@H]1[C@H](C)[C@@H]1C[C@@](O)(NC(=O)O1)[C@H](OC)/C=C/C=C(\C)C2 (single isomer, unassigned) [Conjugate 53]
[1]
  IC50: 42 nM
[2]
  IC50: 175 nM

## CCCCCCCCCCC(CCN[C@H](Cc1ccccc1)C(=O)N[C@H]1CSSC[C@@H](C(=O)N[C@@H](Cc2c[nH]c3ccccc23)C(N)=O)NC(=O)[C@H](C(C)C)NC(=O)[C@H](CCCCN)NC(=O)[C@@H](Cc2c[nH]c3ccccc23)NC(=O)[C@H](Cc2ccc(O)cc2)NC1=O)SSCCC(=O)N(C)[C@@H](C)C(=O)O[C@H]1CC(=O)N(C)c2cc(cc(OC)c2Cl)C/C(C)=C/C=C/[C@@H](OC)[C@@]2(O)C[C@H](OC(=O)N2)[C@@H](C)[C@@H]2O[C@@]12C (single isomer, unassigned) [Conjugate 102]
[1]
  IC50: 335 nM
[2]
  IC50: 579 nM

## COc1cc2cc(c1Cl)N(C)C(=O)C[C@H](OC(=O)[C@H](C)N(C)C(=O)CCSSCCNC(=O)[C@H](Cc1c[nH]c3ccccc13)NC(=O)[C@@H]1CSSC[C@H](NC(=O)[C@H](N)Cc3ccccc3)C(=O)N[C@@H](Cc3ccc(O)cc3)C(=O)N[C@H](Cc3c[nH]c4ccccc34)C(=O)N[C@@H](CCCCN)C(=O)N[C@@H]([C@@H](C)O)C(=O)N1)[C@]1(C)O[C@H]1[C@H](C)[C@@H]1C[C@@](O)(NC(=O)O1)[C@H](OC)/C=C/C=C(\C)C2 [Conjugate 49] (H-[dF]CY[dW]KTCW-{NH(CH2)2SS(DM1)}; disulfide 2-7)
[1]
  IC50: 69 nM
[2]
  IC50: 243 nM

## COc1cc2cc(c1Cl)N(C)C(=O)C[C@H](OC(=O)[C@H](C)N(C)C(=O)CCSC1CC(=O)N(CC(=O)N[C@H](Cc3ccccc3)C(=O)N[C@H]3CSSC[C@@H](C(=O)N[C@H](CO)[C@@H](C)O)NC(=O)[C@H]([C@@H](C)O)NC(=O)[C@H](CCCCN)NC(=O)[C@@H](Cc4c[nH]c5ccccc45)NC(=O)[C@H](Cc4ccccc4)NC3=O)C1=O)[C@]1(C)O[C@H]1[C@H](C)[C@@H]1C[C@@](O)(NC(=O)O1)[C@H](OC)/C=C/C=C(\C)C2 (single isomer, unassigned) [Conjugate 108]
[1]
  IC50: 96 nM
[2]
  IC50: 1280 nM

## COc1cc2cc(c1Cl)N(C)C(=O)C[C@H](OC(=O)[C@H](C)N(C)C(=O)CCSSCCNC(=O)N[C@H](Cc1ccccc1)C(=O)N[C@H]1CSSC[C@@H](C(=O)N[C@H](CO)[C@@H](C)O)NC(=O)[C@H]([C@@H](C)O)NC(=O)[C@H](CCCCN)NC(=O)[C@@H](Cc3c[nH]c4ccccc34)NC(=O)[C@H](Cc3ccccc3)NC1=O)[C@]1(C)O[C@H]1[C@H](C)[C@@H]1C[C@@](O)(NC(=O)O1)[C@H](OC)/C=C/C=C(\C)C2 [Conjugate 84]
[1]
  IC50: 76 nM
[2]
  IC50: 312 nM

## COc1cc2cc(c1Cl)N(C)C(=O)C[C@H](OC(=O)[C@H](C)N(C)C(=O)CCSC1CC(=O)N(CC3CCC(C(=O)N[C@H](Cc4ccccc4)C(=O)N[C@H]4CSSC[C@@H](C(=O)N[C@H](CO)[C@@H](C)O)NC(=O)[C@H]([C@@H](C)O)NC(=O)[C@H](CCCCN)NC(=O)[C@@H](Cc5c[nH]c6ccccc56)NC(=O)[C@H](Cc5ccccc5)NC4=O)CC3)C1=O)[C@]1(C)O[C@H]1[C@H](C)[C@@H]1C[C@@](O)(NC(=O)O1)[C@H](OC)/C=C/C=C(\C)C2 (single isomer, unassigned) [Conjugate 104]
[1]
  IC50: 279 nM
[2]
  IC50: 705 nM
